Measured values as given in patent US5491169A, “Amino acid derivatives and their therapeutical applications” (priority 1989, dated 1996).
Several values for one entry are separate records, joined by “and”; a condition that tells them apart may be missing. Equal entries are not always repeated.

Key:
[1] = Locomotor activity (righting movements) after long-term sulpiride; type: in vivo, rats; conditions: rat, after three weeks of sulpiride, control rat 100%
Protocol: c) Potentiation of the behavioral effects (locomotor hyperactivity) induced by the compounds according to the invention after long-term treatment with […]: 1 h after i.v. or p.o. administration in rats, the compounds according to the invention induce an increase in locomotor activity. […] This potentiation is not apparent until three weeks after the beginning of the treatment with neuroleptics.

Hot plate test, i.p. = type: in vivo; conditions: mice
Protocol: (§1) 1) Hot .plate test: This involves the licking and jumping reflex of the mouse on a plate heated to 55° C., according to the method of Jacob et al (Arch Int. Pharmacodyn. 122 287, 1959; 1961).
1.2 Administered i.p. in mice, the test compounds display a characteristic effect on the times of restraint of jumping and of licking. These effects are antagonized by naloxone (0.5 mg/kg).

Hot plate test, i.v. = type: in vivo; conditions: Mus musculus, iv, mice, hot plate 55° C., Table III 50% analgesia
Protocol: as §1
1.1. Administered i.v. (100 μl in tail vein) in mice, the compounds tested display a characteristic effect both on the latency time of jumping and on latency time of licking. These effects are antagonized by naloxone (0.5 mg/kg s.c.).
The results are expressed in Table III as a % analgesia. The percentage analgesia is expressed for each dose of compound tested by the following formula: [formula]

[2] = target: T1, purified porcine kidney aminopeptidase N (Sus scrofa, UniProt P15145); test: In vitro inhibitory potency against aminopeptidase N; type: biochemical; conditions: purified porcine kidney enzyme, (3H)-Leu5-enkephalin, DTT
T1 construct: purchased Boehringer, France; host or cells: porcine kidney
T1 sequence (P15145 1-963): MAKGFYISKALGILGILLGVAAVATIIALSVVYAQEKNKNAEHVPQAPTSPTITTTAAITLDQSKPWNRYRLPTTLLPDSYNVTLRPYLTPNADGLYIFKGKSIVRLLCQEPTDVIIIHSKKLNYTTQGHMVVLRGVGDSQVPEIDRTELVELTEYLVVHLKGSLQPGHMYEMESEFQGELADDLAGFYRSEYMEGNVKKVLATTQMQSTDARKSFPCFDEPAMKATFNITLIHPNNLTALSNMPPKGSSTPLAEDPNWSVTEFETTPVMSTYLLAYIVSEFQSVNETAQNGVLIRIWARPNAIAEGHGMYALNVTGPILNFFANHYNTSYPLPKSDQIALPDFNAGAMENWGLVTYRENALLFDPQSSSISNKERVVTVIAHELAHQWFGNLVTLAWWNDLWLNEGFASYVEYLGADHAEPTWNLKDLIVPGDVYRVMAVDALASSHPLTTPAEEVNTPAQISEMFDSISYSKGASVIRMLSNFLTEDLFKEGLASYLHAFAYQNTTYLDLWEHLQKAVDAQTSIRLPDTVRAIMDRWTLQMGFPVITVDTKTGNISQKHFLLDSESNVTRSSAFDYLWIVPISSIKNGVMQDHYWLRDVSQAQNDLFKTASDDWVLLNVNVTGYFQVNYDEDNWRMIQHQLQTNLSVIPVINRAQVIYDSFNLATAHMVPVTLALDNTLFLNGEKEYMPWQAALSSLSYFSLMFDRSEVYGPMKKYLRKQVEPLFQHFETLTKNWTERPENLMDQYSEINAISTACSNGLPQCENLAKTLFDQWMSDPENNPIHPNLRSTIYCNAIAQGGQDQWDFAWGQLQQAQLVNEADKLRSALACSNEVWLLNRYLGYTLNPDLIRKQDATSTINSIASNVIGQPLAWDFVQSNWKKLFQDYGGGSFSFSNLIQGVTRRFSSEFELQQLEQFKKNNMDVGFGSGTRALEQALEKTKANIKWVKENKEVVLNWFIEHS
Protocol: (§2) The biological activity relates to the inhibition of purified aminopeptidase N and of purified neutral endopeptidase.
(§3) 1) In vitro inhibition of enkephalinase activities.
b) Inhibitory potency against aminopeptidase N
The inhibitory power is measured on purified porcine kidney aminopeptidase (Boehringer, France). The assay is performed in a manner identical to the above, using (^3 H)-Leu^5 -enkephalin as a substrate. The metabolite formed, (^3 H)-Tyr, is separated by chromatography on a Porapak column, and the quantity formed measured using a liquid scintillation counter.

[3] = Tail flick test (withdrawal of the tail), i.v.; type: in vivo; conditions: rats, 10 mg/kg
Protocol: 3) Test of withdrawal of the tail in rats: (tail flick test): administered i.v. in rats, the compounds according to the invention produce a significant extension of the time of withdrawal of the tail. These effects are antagonized by naloxone (0.5 mg/kg s.c.).
The results are expressed as a % analgesia for the same dose (10 mg/kg) of all the compounds tested.

[4] = target: T2, purified rabbit kidney neutral endopeptidase (Oryctolagus cuniculus, UniProt P08049); test: In vitro inhibitory potency against neutral endopeptidase; type: biochemical; conditions: purified rabbit kidney enzyme, (3H)-D-Ala2-Leu5-enkephalin, 25° C., pH 7.4, DTT 100 equivalents
T2 construct: from tissue; host or cells: rabbit kidney (purified enzyme)
T2 sequence (P08049 1-750): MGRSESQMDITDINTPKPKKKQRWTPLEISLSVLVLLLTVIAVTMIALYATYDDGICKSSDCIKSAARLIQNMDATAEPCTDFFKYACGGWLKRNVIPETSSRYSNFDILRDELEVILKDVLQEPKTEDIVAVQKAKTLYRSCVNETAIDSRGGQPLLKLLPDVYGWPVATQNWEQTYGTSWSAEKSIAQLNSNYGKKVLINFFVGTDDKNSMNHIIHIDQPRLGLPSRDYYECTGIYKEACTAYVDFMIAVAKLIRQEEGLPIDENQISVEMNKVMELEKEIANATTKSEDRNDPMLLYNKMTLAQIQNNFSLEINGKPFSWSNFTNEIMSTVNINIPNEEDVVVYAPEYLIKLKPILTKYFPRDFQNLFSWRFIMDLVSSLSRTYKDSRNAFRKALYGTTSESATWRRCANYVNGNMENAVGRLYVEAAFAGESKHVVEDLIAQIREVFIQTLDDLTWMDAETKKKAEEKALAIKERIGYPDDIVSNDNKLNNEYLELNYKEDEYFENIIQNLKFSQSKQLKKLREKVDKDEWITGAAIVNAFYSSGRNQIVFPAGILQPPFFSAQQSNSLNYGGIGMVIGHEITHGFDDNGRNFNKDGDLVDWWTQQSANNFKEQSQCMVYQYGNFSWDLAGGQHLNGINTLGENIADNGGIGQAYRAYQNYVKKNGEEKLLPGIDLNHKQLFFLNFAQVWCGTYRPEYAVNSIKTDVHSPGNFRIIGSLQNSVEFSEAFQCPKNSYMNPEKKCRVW
Protocol: as §2, §3
a) Inhibitory potency against neutral endopeptidase
The inhibitory power is determined on purified rabbit kidney neutral endopeptidase following the protocol described in the literature (Blumberg et al. Life Sci. (1981) 28, 301). After a preincubation for 15 minutes at 25° C., an aliquot of proteins is incubated for 20 minutes at 25° C. in the presence of 20 nmol of (^3 H)-D-Ala^2 -Leu^5 -enkephalin and the test compound in solution in Tris-HCl buffer (pH 7.4) in the presence of dithiothreitol DTT (100 equivalents relative to the inhibitor). The reaction is stopped by adding 0.2 N HCl. The tritiated metabolite (^3 H)-Tyr-D-Ala-Gly is separated from the D-Ala^2 -Leu^5 -enkephalin by chromatography on a Porapak column, and the quantity formed measured using a liquid scintillation counter.
The activity of the different compounds is expressed as 50% inhibitory concentrations (IC50), and the results are summarized in Table II.

Mice despair test = type: in vivo; conditions: mouse, controls 165 ± 15, p < 0.01
Protocol: This test, described by Porsolt et al. (Arch. Int. Pharmacodyn. Ther, 299, 327 (1977), enables the antidepressant properties of the claimed compounds to be evaluated.
Mice are treated with increasing doses of the compounds thirty minutes before the test, and the immobility of the animals is measured relative to controls which receive only the vehicle. The immobility time is decreased by the compounds according to the invention, and this effect is antagonized by naloxame (0.5 mg/kg s.c.).

cerebral NEP = test: In vivo inhibition of cerebral NEP; conditions: mice, i.v., 2.7 μmol/kg (Example 7: same conditions)
Protocol: 2) "In vivo" inhibition of cerebral NEP
The enzymatic activity of cerebral NEP is compared in mice untreated or treated with a given dose of compound (approximately 2.5 mg/kg injected intravenously. The animals are sacrificed at variable times after injection of the inhibitor, and the NEP activity is determined in the brain by measuring the degradation of (^3 H)-D-Ala^2 -Leu^5 -enkephalin.
For the final compound of Example 1, injected at a dose of 2.7 μmol/kg (47.6 μg in 100 μl), the following results are obtained: […]

[5] = Cross-tolerance with morphine, i.v. injection into morphine-tolerant animal; conditions: mouse or rat
[6] = Test on abdominal cramps induced by phenylbenzoquinone, i.v.; type: in vivo
Protocol: 2) Test on abdominal cramps
(Hendershot and Forsaith. J. Pharmacol. (1975), 125, 237): This test measures the number of cramps induced by i.p. injection of 100 μl of a 0.02% solution of phenylbenzoquinone. The number of cramps is counted during 10 minutes, 10 minutes after the injection. Administered i.v., the compounds decrease the number of cramps.

[7] = Tolerance after long-term administration, mice (% analgesia); type: in vivo; conditions: mouse, in vivo
Protocol: (§4) e) Study of the tolerance and addiction effects induced by long-term administration of the compound of Example 8:
(§5) 1) The compound 8 is administered s.c. four times per 24 hours at a dose of 5 mg/kg for 6 days to mice and at 10 mg/kg to rats.
(§6) Morphine (hydrochloride) is administered under the same conditions (0.5 mg/kg in mice, 2 mg/kg in rats). The control animals receive only the vehicle.

[8] = Tolerance after long-term administration, rats (% analgesia); type: in vivo; conditions: rat, in vivo
Protocol: as §4, §5, §6

[9] = Addiction effects: naloxone-precipitated abstinence syndrome after long-term treatment; type: in vivo; conditions: rats, 6 days long-term treatment, naloxone 2 mg/kg s.c.; compared to morphine
Protocol: as §5
2) After long-term treatment for 6 days under the conditions described above, the rats undergo an injection of 2 mg/kg of naloxane s.c. The signs of abstinence syndrome are measured according to Cowan et al. (J. Pharmacol. Exp. Ther. (1988) 246, 950).

For `CSCCC(N)CSSCC(Cc1ccccc1)C(=O)NCC(=O)OCc1ccccc1` (stereo not drawn) [Example 5], the Locomotor activity ([1]; i.v., 5 mg/kg) was 400%, the “dose in i.p. hot plate table” value (Hot plate test, i.p.) was 7 mg/kg and the ED50 (Hot plate test, i.v.) was 2.5 mg/kg. For the same compound, the IC50 [2] was 2 nM, the “% analgesia (tail flick)” value [3] was 25% and the IC50 [4] was 2 nM. It also gave an Immobility time (Mice despair test; 5 mg/kg i.p.) of 108 ± 12 s.

For `CSCCC(N)CSSCC(Cc1ccccc1)C(=O)NC(Cc1ccccc1)C(=O)OCc1ccccc1` (stereo not drawn) [Example 7], the Locomotor activity ([1]; i.v., 3 mg/kg) was 400%, the “dose in i.p. hot plate table” value (Hot plate test, i.p.) was 8 mg/kg and the ED50 (Hot plate test, i.v.) was 5 mg/kg. The “% inhibition cerebral NEP” value (cerebral NEP; 60') was 96 ± 5%, the “% inhibition cerebral NEP” value (cerebral NEP; 120') was 96 ± 4% and the “% inhibition cerebral NEP” value (cerebral NEP; 180') was 92 ± 4%. For the same compound, the “analgesic response in morphine-tolerant animal” value [5] was “analgesic response identical to that obtained in a control animal”, the cross-tolerance with morphine [5] was “absence of cross-tolerance” and the “% analgesia (abdominal cramps)” value ([6]; 2.5 mg/kg) was 32% ± 4. For the same compound, the “% analgesia (abdominal cramps)” value ([6]; 5 mg/kg) was 68% ± 9, the “% analgesia (abdominal cramps)” value ([6]; 10 mg/kg) was 95% ± 4 and the “% analgesia (tail flick)” value [3] was 42%. The IC50 [4] was 2.5 nM.

In the case of `C[S+]([O-])CCC(N)CSSCC(Cc1ccccc1)C(=O)NCC(=O)OCc1ccccc1` (stereo not drawn) [Example 8], the “% analgesia relative to the controls” value [7] is reported as 100 ± 10% and 100 ± 8% and 70 ± 15%, the ED50 (Hot plate test, i.v.) is reported as 2.5 mg/kg and the “% analgesia relative to the controls” value [8] is reported as 40 ± 5% and 30 ± 7%. The IC50 [2] was 2 nM, the IC50 [4] was 2 nM and the addiction effects [9] was “very weak addiction effects”.

`C[S+]([O-])CCC(N)CSSCC(CC[S+](C)[O-])C(=O)NC(CC(=O)OCc1ccccc1)Cc1ccccc1` (stereo not drawn) [Example 30] showed a Locomotor activity ([1]; i.v. (so in the source), 20 mg/kg) of 370%, a Locomotor activity ([1]; i.v., 2 mg/kg) of 350% and an ED50 (Hot plate test, i.v.) of 3 mg/kg. For the same compound, the IC50 [2] was 2 nM, the IC50 [4] was 3 nM and the Immobility time (Mice despair test; 2 mg/kg i.p.) was 96 ± 8 s. For the same compound, the Immobility time (Mice despair test; 20 mg/kg p.o.) was 101 ± 10 s.
